Assay results taken from patent US20230390315A1, “COMPOSITIONS AND METHODS FOR TREATING ISCHEMIC CONDITIONS” (The Regents of the University of California, priority 2020, published 2023).

Columns and labels:
HUVEC = HUVEC proliferation assay; type: cell-based, human
Protocol: Proliferation assays with BCECs and BRECs were performed. Log-phase growing BCECs or BRECs (passage <10) were trypsinized, re-suspended and seeded in 96-well plates (no coating) in low-glucose DMEM supplemented with 10% bovine calf serum, 2 mM glutamine, and antibiotics (growth medium), at a density of 1200-1500 cells per well in 200 μl volume. All reagents were added at the indicated final concentrations. After 3-6 days, cells were incubated with AlamarBlue for 4 hrs. Fluorescence was measured at 530 nm excitation wavelength and 590 nm emission wavelength. The experiments were repeated at least three times. To create a hypoxic condition, cells were placed in a hypoxia incubator with a mixture of gas consisting of 1% 02, 5% CO2 and 94% Nz. On each 96-well plate, untreated and VEGF-treated (10/ng/ml) wells were included to monitor plate-to-plate variations. 20% methanol or 0.05% DMSO served as negative controls. 0.05% DMSO served as negative controls when Cas was tested in these cells. Human RMVECs and human adult DMVECs were split into Gelatin-coated 96 wells (2000 cells per well) in low glucose DMEM containing 10% FBS. 1200 cells/well was set up for proliferation assay in low glucose media containing FBS. Data was collected at day 4 or 5. HUVEC (p7-10) were grown on gelatin-coated plate until it reached 70-80% confluency.
On the day of the assay, cells were dissociated with 0.05% trypsin, which was neutralized with 0.5% FBS-containing EBM. Cells were briefly spun and then re-suspended in 0.5% FBS-media. Cells were counted and plated in 96-well, 1000 cells/well. Triplicate wells were used for each treatment. Data were collected at day 3, and then cells were fixed in 4% paraformaldehyde for 15 min before adding crystal violet. Cell-covered areas were quantified after taking pictures by Image J software.

human dermal fibroblasts = assay: Human dermal fibroblast proliferation assay; type: cell-based; conditions: alone or in combination with growth factors
Protocol: (§1) Proliferation assays with fibroblasts were done in low-glucose DMEM containing 1% FBS, with or without 10 ng/ml bFGF, or 100 ng/ml human EGF and the assay was ended at day 3. ARPE-19 cells were gently lifted with 0.025% trypsin and plated in RtEGM media (Clonetics) containing 2% FBS, L-glutamine, human bFGF and GA-1000. Once cells were attached to plates, serum-free RtEGM media was used to maintain the cultures. For proliferation assays, 1500 human RPE cells were plated into 96-well plates in low-glucose DMEM containing 1% FBS. A673, U87MG, Calu6 and AML12 cells were grown until confluent and were then harvested and re-suspended in appropriate assay media. For proliferation assays, cells were plated at the density of 1000-2000 cells/well in low-glucose DMEM containing 5% FBS or otherwise stated. Bovine pituitary cells (pituitary folliculostellate cells) were isolated as previously described. For proliferation assays with human epidermal keratinocytes, human DMVECs and human dermal fibroblast cells, 1000 cells/well were plated in low-glucose DMEM containing 1% FBS with or without various growth factors. The assay was ended at day 3 for bovine pituitary cells and at day 4 for all the other cell types. […] Four days later, tumor cell growth was measured by the MTS assay (Promega, Madison, WI), a colorimetric assay that measures metabolic activity of viable cells. […]

bFGFR1 or β1 integrin = assay: Western blot of protein molecular mass in non-ECs; type: cell-based; conditions: 400 μM and 2 mM
Protocol: Cells were allowed to reach 80% confluency in 12-well plates. […] At various time points, plates were taken out of the incubator and kept on ice. Cell monolayers were first washed once with ice-cold PBS before lysis with 250 μl of Pierce RIPA buffer (ThermoFisher Scientific, Rockford, IL) or use 50 mM Tris-HCl (pH 7.6), 150 mM NaCl, 10% Glycerol, 1% NP-40 containing protease/Phosphatase inhibitor cocktail (100×) (Cell signaling, #5872). Lysates were collected and mixed with 4×Bolt LDS Sample Buffer (Novex, Carlsbad, CA) in the presence of Halt protease inhibitors and phosphatase inhibitor cocktail (ThermoFisher scientific, #NP0007). The samples were subjected to SDS-PAGE (Bolt 4-12% Bis-Tris Plus, Invitrogen) using Bolt MES SDS running buffer or NuPAGE 3-8% Tris-Acetate gel using Tris-Acetate SDS running buffer (Novex). HUVECs (passage 6-8) were plated in EBM-2 basal medium (Lonza) with 0.2% FBS. […] Equal amounts of protein lysates were analyzed by SDS-PAGE and blotted with the indicated antibodies. Proteins were transferred using Tris-Glycine buffer with 20% Methanol (Proteonomics grade) (Apex BioResearch Products). Membranes were first incubated with 5% milk in TBST, pH 7.6 (TEKnova, Hollister, CA), followed by blotting with primary and secondary antibodies. […]

human keratinocytes = assay: Human keratinocyte proliferation assay; type: cell-based
Protocol: as §1

[1] = Cellular uptake of ManN in BCECs; type: in vitro ADME, bovine
BCEC = BCEC transwell migration assay; type: cell-based, bovine; conditions: ManN at 40 uM
Protocol: HUVECs (passage 6-8) were cultured and serum-starved as described in “Western Blots”. Ten thousand cells in 150 μl of EBM-2 medium were then added to the upper chamber of 8 μm pore size cell culture inserts (Falcon) coated with 0.1% gelatin. The lower compartment was filled with 600 μl EBM-2 medium containing various agents. The plates were incubated at 37° C. to allow migration. After 4 hrs, cells were fixed with 4% PFA for 20 min and then stained with crystal violet (Sigma-Aldrich) for 20 min at RT. Migrated cells on the bottom side of the insert membrane were quantified by counting whole area of the insert at 40× magnification. The experiments were carried out in triplicate and repeated three times. BCEC migration was set up similarly, except that wells were coated with FN, cells were suspended in 1% serum media and migration time was 18-24 hrs.

bovine pituitary cells = assay: Bovine pituitary cell proliferation assay; type: cell-based; conditions: alone or in combination with growth factors
Protocol: as §1

**Q.** Which results are given for N[C@H](C=O)[C@@H](O)[C@H](O)[C@H](O)CO [ManN, 2-Amino-2-deoxy-D-mannose]?
**A.** additivity with VEGF on proliferation (HUVEC; HUVEC): dose-dependent additivity with VEGF; toxicity (HUVEC; HUVEC, at 5 mM): minimal toxicity; HUVEC growth (HUVEC; ManN by itself): stimulated; proliferation of human dermal fibroblasts (human dermal fibroblasts): no increases in proliferation; molecular mass change of bFGFR1 or β1 integrin in non-ECs (bFGFR1 or β1 integrin): induce molecular mass change; cellular toxicity, sensitivity among cell types (human keratinocytes; 5 mM level of ManN): least sensitive; proliferation of human keratinocytes (human keratinocytes; alone or in combination with growth factors): no increases in proliferation; cell entry and accumulation [1]: entered and accumulated inside the cells in a concentration-dependent manner; ManN detected in 1 mg cell lysate ([1]; 400 uM ManN for 2 hours): 0.66 nmol; additivity with VEGF in promoting BCEC migration (BCEC): significant additivity with VEGF; proliferation of bovine pituitary cells (bovine pituitary cells): no increases in proliferation
